Reference: patent publication US11248234B2, “Herbicide-resistant hydroxyphenylpyruvate dioxygenases” (BASF SE, priority 2015, dated 2022)
Entries after “also recorded” stand apart in the source; their conditions may differ.

Columns and labels:
[1] = molecular target: T1, Arabidopsis HPPD (Seq ID: 42) (Arabidopsis thaliana, UniProt P93836); experiment: In vitro HPPD activity assay (homogentisic acid by HPLC); format: biochemical; details: benchmark enzyme; normalized on Arabidopsis wild-type HPPD
T1 construct: His6; made in house; host or cells: E. coli BL21 (DE3)
T1 sequence (P93836 1-445): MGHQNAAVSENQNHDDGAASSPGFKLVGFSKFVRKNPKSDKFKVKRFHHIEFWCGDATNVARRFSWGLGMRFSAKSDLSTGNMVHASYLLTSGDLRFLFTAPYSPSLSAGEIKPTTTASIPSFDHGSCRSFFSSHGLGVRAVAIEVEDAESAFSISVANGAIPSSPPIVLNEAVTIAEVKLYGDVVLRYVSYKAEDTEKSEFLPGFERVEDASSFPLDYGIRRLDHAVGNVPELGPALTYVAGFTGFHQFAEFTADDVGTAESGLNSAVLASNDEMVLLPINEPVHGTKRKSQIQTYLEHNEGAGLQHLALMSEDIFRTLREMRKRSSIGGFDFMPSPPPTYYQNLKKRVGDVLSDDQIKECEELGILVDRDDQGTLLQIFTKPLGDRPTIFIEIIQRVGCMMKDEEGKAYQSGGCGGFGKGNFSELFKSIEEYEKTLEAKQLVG
Protocol: (§1) HPPD produces homogentisic acid and CO2 from 4-hydroxyphenylpyruvate (4-HPP) and O2. The activity assay for HPPD is based on the analysis of homogentisic acid by reversed phase HPLC.
(§2) The assay mixture can contain 150 mM potassium phosphate buffer pH 7.0, 50 mM L-ascorbic acid, 100 μM Catalase (Sigma-Aldrich), 1 μM FeSO4 and 0.2 units of purified mutated HPPD enzyme in a total volume of 505 μl. 1 unit is defined as the amount of enzyme that is required to produce 1 nmol of HGA per minute at 20° C.
(§3) After a preincubation of 30 min the reaction is started by adding 4-HPP to a final concentration of 0.05 mM. The reaction is allowed to proceed for 45 min at room temperature. The reaction is stopped by the addition of 50 μl of 4.5 M phosphoric acid. The sample is filtered using a […] pore size PVDF filtration device.
(§4) 5 μl of the cleared sample is analyzed on an UPLC HSS T3 column (particle size 1.8 μm, dimensions 2.1×50 mm; Waters) by isocratic elution using 90% 20 mM NaH2PO4 pH 2.2, 10% methanol (v/v).
(§5) HGA is detected electrochemically at 750 mV (mode: DC; polarity: positive) and quantified by integrating peak areas (Empower software; Waters).
Inhibitors are dissolved in DMSO (dimethylsulfoxide) to a concentration of 0.5 mM. From this stock solution serial five-fold dilutions are prepared in DMSO, which are used in the assay. The respective inhibitor solution accounts for 1% of the assay volume. […] Activities are normalized by setting the uninhibited enzyme activity to 100%. IC50 values are calculated using non-linear regression.
Using methods which are described in the above examples or well known in the art, purified, recombinant mutated HPPD enzymes are characterized with respect to their kinetic properties and sensitivity towards HPPD inhibiting herbicides. Apparent michaelis constants (Km) and maximal reaction velocities (Vmax) are calculated by non-linear regression with the software GraphPad Prism 5 (GraphPad Software, La Jolla, USA) using a substrate inhibition model. […] Weighted means (by standard error) of Km and IC50 values are calculated from at least three independent experiments.
(§6) Field performance of the HPPD enzyme, which is used as a herbicide tolerance trait may depend not only on its lack of sensitivity towards HPPD inhibiting herbicides but also on its activity. To assess the potential performance of a herbicide tolerance trait a tolerance index (TI) is calculated using the following formula: […]
(§7) Easy comparison and ranking of each trait is enabled by normalizing tolerance indexes on Arabidopsis wild-type HPPD.

[2] = system: SoHPPD A318P, A319P (short); experiment: In vitro HPPD activity assay; format: biochemical, Scenedesmus obliquus; details: normalized on Arabidopsis wild-type HPPD (SEQ ID NO:42)
Protocol: as §1, §2, §3, §4, §5
(§8) Inhibitors are dissolved in DMSO (dimethylsulfoxide) to a concentration of 0.5 mM. From this stock solution serial five-fold dilutions are prepared in DMSO, which are used in the assay. The respective inhibitor solution accounts for 1% of the assay volume. Thus, final inhibitor concentrations range from 5 μM to 320 pM, respectively. Activities are normalized by setting the uninhibited enzyme activity to 100%. IC50 values are calculated using non-linear regression.
(§9) Using methods which are described in the above examples or well known in the art, purified, recombinant mutated HPPD enzymes are characterized with respect to their kinetic properties and sensitivity towards HPPD inhibiting herbicides. Apparent michaelis constants (Km) and maximal reaction velocities (Vmax) are calculated by non-linear regression with the software GraphPad Prism 5 (GraphPad Software, La Jolla, USA) using a substrate inhibition model. Apparent kcat values are calculated from Vmax assuming 100% purity of the enzyme preparation. Weighted means (by standard error) of Km and IC50 values are calculated from at least three independent experiments. The Cheng-Prusoff equation for competitive inhibition (Cheng, Y. C.; Prusoff, W. H. Biochem Pharmacol 1973, 22, 3099-3108) is used to calculate dissociation constants (Ki).
as §6, §7

[3] = system: SoHPPD A318R, L350M; experiment: In vitro HPPD activity assay; format: biochemical, Scenedesmus obliquus; details: normalized on Arabidopsis wild-type HPPD (SEQ ID NO:42)
Protocol: as §1, §2, §3, §4, §5, §8, §9, §6, §7

[4] = system: SoHPPD E345Q (short); experiment: In vitro HPPD activity assay; format: biochemical, Scenedesmus obliquus; details: normalized on Arabidopsis wild-type HPPD (SEQ ID NO:42)
Protocol: as §1, §2, §3, §4, §5, §8, §9, §6, §7

[5] = system: SoHPPD E345Q, K326D (short); experiment: In vitro HPPD activity assay; format: biochemical, Scenedesmus obliquus; details: normalized on Arabidopsis wild-type HPPD (SEQ ID NO:42)
Protocol: as §1, §2, §3, §4, §5, §8, §9, §6, §7

[6] = system: SoHPPD E379Q (short); experiment: In vitro HPPD activity assay; format: biochemical, Scenedesmus obliquus; details: normalized on Arabidopsis wild-type HPPD (SEQ ID NO:42)
Protocol: as §1, §2, §3, §4, §5, §8, §9, §6, §7

[7] = system: SoHPPD F363I; experiment: In vitro HPPD activity assay; format: biochemical, Scenedesmus obliquus; details: normalized on Arabidopsis wild-type HPPD (SEQ ID NO:42)
Protocol: as §1, §2, §3, §4, §5, §8, §9, §6, §7

[8] = system: SoHPPD I419V (short); experiment: In vitro HPPD activity assay; format: biochemical, Scenedesmus obliquus; details: normalized on Arabidopsis wild-type HPPD (SEQ ID NO:42)
Protocol: as §1, §2, §3, §4, §5, §8, §9, §6, §7

[9] = system: SoHPPD K326E, E345Q (short); experiment: In vitro HPPD activity assay; format: biochemical, Scenedesmus obliquus; details: normalized on Arabidopsis wild-type HPPD (SEQ ID NO:42)
Protocol: as §1, §2, §3, §4, §5, §8, §9, §6, §7

[10] = system: SoHPPD L367V, I375L (short); experiment: In vitro HPPD activity assay; format: biochemical, Scenedesmus obliquus; details: normalized on Arabidopsis wild-type HPPD (SEQ ID NO:42)
Protocol: as §1, §2, §3, §4, §5, §8, §9, §6, §7

[11] = system: SoHPPD L367V, I375L; experiment: In vitro HPPD activity assay; format: biochemical, Scenedesmus obliquus; details: normalized on Arabidopsis wild-type HPPD (SEQ ID NO:42)
Protocol: as §1, §2, §3, §4, §5, §8, §9, §6, §7

[12] = system: SoHPPD Q317H, A318G, E345Q (short); experiment: In vitro HPPD activity assay; format: biochemical, Scenedesmus obliquus; details: normalized on Arabidopsis wild-type HPPD (SEQ ID NO:42)
Protocol: as §1, §2, §3, §4, §5, §8, §9, §6, §7

[13] = system: SoHPPD R327G, E421D (short); experiment: In vitro HPPD activity assay; format: biochemical, Scenedesmus obliquus; details: normalized on Arabidopsis wild-type HPPD (SEQ ID NO:42)
Protocol: as §1, §2, §3, §4, §5, §8, §9, §6, §7

[14] = system: SoHPPD V251A (short); experiment: In vitro HPPD activity assay; format: biochemical, Scenedesmus obliquus; details: normalized on Arabidopsis wild-type HPPD (SEQ ID NO:42)
Protocol: as §1, §2, §3, §4, §5, §8, §9, §6, §7

Compound	TI (normalized tolerance index) [1]	TI (normalized tolerance index) [2]	TI (normalized tolerance index) [3]	TI (normalized tolerance index) [4]	TI (normalized tolerance index) [5]	TI (normalized tolerance index) [6]	TI (normalized tolerance index) [7]	TI (normalized tolerance index) [8]	TI (normalized tolerance index) [9]	TI (normalized tolerance index) [10]	TI (normalized tolerance index) [11]	TI (normalized tolerance index) [12]	TI (normalized tolerance index) [13]	TI (normalized tolerance index) [14]
CC(=O)N(C)c1c(Cl)ccc(C2=C(O)c3ncccc3C(C)(C)S2(=O)=O)c1Cl [Inhibitor 5, N-[2,6-dichloro-3-(8-hydroxy-5,5-dimethyl-6,6-dioxo-thiopyrano[4,3-b]pyridin-7-yl)phenyl]-N-methyl-acetamide]	1.0	0.5	0.2	0.2	0.2	0.0	0.4	0.1	0.0	0.3	0.1	0.9	0.3	0.0
CS(=O)(=O)c1ccc(C(=O)C2C(=O)CCCC2=O)c([N+](=O)[O-])c1 [Inhibitor 2, 2-(4-methylsulfonyl-2-nitro-benzoyl)cyclohexane-1,3-dione]	1.0	0.2	0.1	0.5	0.1	0.0	0.1	0.1	0.0	0.0	0.0	0.4	0.2	0.0
CCSc1ccc(Cl)c(C(=O)Nc2nnnn2C)c1Cl [Inhibitor 8, 2,6-dichloro-3-ethylsulfanyl-N-(1-methyltetrazol-5-yl)benzamide]	1.0	0.8	0.2	0.5	0.3	0.4	no inhibition; also recorded: no inhi-	0.3	0.1	0.7	0.0	1.0	0.5	0.1
CCS(=O)(=O)c1cc(C(F)(F)F)ccc1C1=C(O)c2ncccc2C(C)(C)S1(=O)=O [Inhibitor 4, 7-[2-ethylsulfonyl-4-(trifluoromethyl)phenyl]-5,5-dimethyl-6,6-dioxo-thiopyrano[4,3-b]pyridin-8-ol]	1.0	0.6	0.3	0.3	0.0	0.1	0.1	0.3	0.0	0.3	0.2	1.4	0.0	0.0
